# Data as given in publication PMC4811503, “A method for quantification of exportin-1 (XPO1) occupancy by Selective Inhibitor of Nuclear Export (SINE) compounds” (Oncotarget, 2015).
# Where two headings read alike, the source gives them in different places.
# How the values were obtained:
# [1] = test system: THP-1; test: MTT cytotoxicity assay; assay type: cell-based; settings: Homo sapiens, read-out: Selinexor IC50 (μM)
# [2] = test system: AML3; test: MTT cytotoxicity assay; assay type: cell-based
# [3] = test system: ASPS-KY; test: MTT cytotoxicity assay; assay type: cell-based; settings: read-out: Selinexor IC50 (μM)
# [4] = humans; clinical PK analysis, no reference given; cited from earlier work
# [5] = test system: nuclear export of the XPO1 cargo protein Rev-GFP in stably transfected U2OS cells; test: Rev-GFP assay (nuclear retention of Rev-GFP); assay type: cell-based; settings: Homo sapiens
# Description: For this assay we utilized biotinylated LMB (b-LMB) as a tool compound to quantify the amount of XPO1 bound by SINE compounds (Figure 1). b-LMB was synthesized by coupling a biotin tag to LMB. We compared the inhibition of nuclear export and the cytotoxicity of b-LMB to that of the unmodified LMB. […] We then quantified the effects of these compounds on cell death in several cancer cell lines using an MTT cytotoxicity assay (Table 2).
# For the typical Rev-GFP assay, U2OS cells stably expressing Rev-GFP [42] were cultured in 96 well plates at 7,500 - 15,000 cells/well. […] After fixation cells were stained with DAPI (Invitrogen) for 10 minutes at room temperature. Cells were imaged with a Nikon fluorescent microscope at 10X magnification and intensity of the GFP and nuclear area were measured and recorded. Cells were scored as either GFP nuclear positive or negative. Number of positive cells were divided by total number of cells in order to calculate percentage of cells with nuclear GFP per well.
# [6] = test system: LS174T; test: MTT cytotoxicity assay; assay type: cell-based; settings: Homo sapiens, read-out: Selinexor IC50 (μM)
# [7] = test system: HT1080; test: MTT cytotoxicity assay; assay type: cell-based; settings: Homo sapiens, HT-1080, read-out: Selinexor IC50 (μM)
# [8] = target: XPO1 (Homo sapiens, UniProt O14980); test: XPO1 occupancy assay in human PBMCs treated ex vivo; assay type: cell-based; parameters: performed ex vivo on PBMCs isolated from pooled healthy donor blood; host or cells: human PBMCs from pooled healthy donor blood, fresh or revived after cryopreservation; settings: then 1 nM b-LMB 1 hour
# Method: (§1) Cells were collected, washed with PBS, and lysed with RIPA Buffer (Thermo Scientific) with protease inhibitors [Complete Ultra Tablets, Mini, EDTA-free, Easy pack (Roche), PhosStop Easy (Roche)]. A portion of the lysate was reserved (input) while the rest was added to washed Dynabeads MyOne Streptavidin T1 (Invitrogen) with RIPA Buffer. Samples were incubated overnight with constant rotation at 4°C. Beads were then washed 5 times with modified RIPA (150 mM NaCl, 50 mM Tris, 1% NP-40, 0.1% Na deoxycholate, 1 mM EDTA, pH 7.8). The reserved portion of lysates (input) and the beads were each mixed with Protein Simple buffer (Protein Simple), DTT (Invitrogen), and fluorescent standards (Protein Simple), then boiled at 95°C for 10 min. Eluates and inputs were analyzed using a capillary western method (Peggy Sue; Protein Simple) with the following primary antibodies: XPO1 (Santa Cruz) and β-actin (Santa Cruz). Capillary westerns were performed by SBH Sciences (Natick, MA). Peak areas corresponding to the protein molecular weight of XPO1 and actin were compared for sample inputs, while the ratio of XPO1 peak areas in eluate to input (ratio of bound or free-fraction XPO1) versus compound concentration were used in XLFit model 205 to calculate 50% and 90% occupancy curves.
# [9] = test system: MV-4–11; test: MTT cytotoxicity assay; assay type: cell-based; settings: Homo sapiens, MV4-11, read-out: Selinexor IC50 (μM)
# [10] = target: T1, XPO1 (Mus musculus, UniProt Q6P5F9); test: XPO1 occupancy assay in PBMCs from mice dosed orally with selinexor; assay type: in vivo
# T1 construct: the blood from the mice for each dose (n = 4) was pooled and PBMCs were immediately isolated; from tissue; host or cells: PBMCs from pooled blood of orally dosed mice
# Method: In order to have enough PBMCs to assay, the blood from the mice for each dose (n = 4) was pooled and PBMCs were immediately isolated. Mouse PBMCs were incubated with 1 nM b-LMB for 1.5 hours ex vivo then collected and prepared for the XPO1 occupancy assay.
# Using similar conditions, we sought to determine the duration of XPO1 occupancy by SINE compounds in mice. […] The mice were then terminally bled at 4, 24, 36, 48, 60, 72, and 96 hours post dose (n = 4 mice per dose per time point). Blood for each dose at each time point was pooled and PMBCs were isolated. Mouse PBMCs were incubated with 1 nM b-LMB for 1.5 hours ex vivo before being processed for the XPO1 occupancy assay. Both 3 and 10 mg/kg had time-dependent increases in the ratio of free-fraction XPO1, with 50% XPO1 occupancy being sustained for up to 72 hours post-treatment (Figure 5B).
# Human donor blood collected in Vacutainer® EDTA tubes (BD) (BioreclamationIVT) was purchased for peripheral blood mononuclear cells (PBMCs) isolation. […] Mouse whole blood was collected in Vacutainer® EDTA tubes (BD) and pooled from each group for each time point. Human and mouse PBMCs were separated by Ficoll (GE Healthcare) gradient. Human PMBCs were cryogenically preserved in Recovery™ Cell Culture Freezing Medium (Gibco). […] Freshly isolated PBMCs from control or selinexor-treated mice were treated ex vivo with 1 nM b-LMB for 1.5 hours prior to collection and processing for the XPO1 occupancy assay.
# as §1
# [11] = test system: HCT-116; test: MTT cytotoxicity assay; assay type: cell-based; settings: Homo sapiens
# [12] = test system: UCH1; test: MTT cytotoxicity assay; assay type: cell-based; settings: read-out: Selinexor IC50 (μM)
# [13] = read-out: Selinexor IC50 (μM), MTT
# [14] = single oral dose, 4 hours post-dosing
# T1 sequence (Q6P5F9 whole entry): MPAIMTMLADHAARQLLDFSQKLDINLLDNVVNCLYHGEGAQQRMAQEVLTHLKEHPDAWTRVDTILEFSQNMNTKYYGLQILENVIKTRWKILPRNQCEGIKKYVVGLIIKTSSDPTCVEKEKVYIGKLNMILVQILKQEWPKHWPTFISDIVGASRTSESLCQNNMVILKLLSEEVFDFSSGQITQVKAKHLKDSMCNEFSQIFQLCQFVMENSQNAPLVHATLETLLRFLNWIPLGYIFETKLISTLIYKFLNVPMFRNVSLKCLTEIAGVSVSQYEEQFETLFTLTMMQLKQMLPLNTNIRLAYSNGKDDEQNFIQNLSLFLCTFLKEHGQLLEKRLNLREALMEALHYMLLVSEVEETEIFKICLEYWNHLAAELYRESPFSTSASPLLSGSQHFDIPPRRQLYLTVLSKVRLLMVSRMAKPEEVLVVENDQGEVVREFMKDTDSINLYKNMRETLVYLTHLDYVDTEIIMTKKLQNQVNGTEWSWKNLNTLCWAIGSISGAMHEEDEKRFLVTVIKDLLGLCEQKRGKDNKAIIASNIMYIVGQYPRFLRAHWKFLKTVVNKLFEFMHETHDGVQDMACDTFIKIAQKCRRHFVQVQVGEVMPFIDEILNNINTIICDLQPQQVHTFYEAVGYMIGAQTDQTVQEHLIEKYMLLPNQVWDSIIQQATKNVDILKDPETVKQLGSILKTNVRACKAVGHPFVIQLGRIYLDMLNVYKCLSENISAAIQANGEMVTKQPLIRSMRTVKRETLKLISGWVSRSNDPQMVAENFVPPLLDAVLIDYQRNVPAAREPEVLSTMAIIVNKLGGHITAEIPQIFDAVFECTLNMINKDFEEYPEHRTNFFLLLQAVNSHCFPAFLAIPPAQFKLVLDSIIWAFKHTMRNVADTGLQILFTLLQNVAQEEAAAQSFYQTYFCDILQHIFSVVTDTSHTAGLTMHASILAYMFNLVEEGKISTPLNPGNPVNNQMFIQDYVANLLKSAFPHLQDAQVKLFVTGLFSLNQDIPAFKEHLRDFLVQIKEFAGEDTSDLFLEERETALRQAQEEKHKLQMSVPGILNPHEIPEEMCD
# Sequence of XPO1 (Homo sapiens, UniProt O14980) (O14980 whole entry): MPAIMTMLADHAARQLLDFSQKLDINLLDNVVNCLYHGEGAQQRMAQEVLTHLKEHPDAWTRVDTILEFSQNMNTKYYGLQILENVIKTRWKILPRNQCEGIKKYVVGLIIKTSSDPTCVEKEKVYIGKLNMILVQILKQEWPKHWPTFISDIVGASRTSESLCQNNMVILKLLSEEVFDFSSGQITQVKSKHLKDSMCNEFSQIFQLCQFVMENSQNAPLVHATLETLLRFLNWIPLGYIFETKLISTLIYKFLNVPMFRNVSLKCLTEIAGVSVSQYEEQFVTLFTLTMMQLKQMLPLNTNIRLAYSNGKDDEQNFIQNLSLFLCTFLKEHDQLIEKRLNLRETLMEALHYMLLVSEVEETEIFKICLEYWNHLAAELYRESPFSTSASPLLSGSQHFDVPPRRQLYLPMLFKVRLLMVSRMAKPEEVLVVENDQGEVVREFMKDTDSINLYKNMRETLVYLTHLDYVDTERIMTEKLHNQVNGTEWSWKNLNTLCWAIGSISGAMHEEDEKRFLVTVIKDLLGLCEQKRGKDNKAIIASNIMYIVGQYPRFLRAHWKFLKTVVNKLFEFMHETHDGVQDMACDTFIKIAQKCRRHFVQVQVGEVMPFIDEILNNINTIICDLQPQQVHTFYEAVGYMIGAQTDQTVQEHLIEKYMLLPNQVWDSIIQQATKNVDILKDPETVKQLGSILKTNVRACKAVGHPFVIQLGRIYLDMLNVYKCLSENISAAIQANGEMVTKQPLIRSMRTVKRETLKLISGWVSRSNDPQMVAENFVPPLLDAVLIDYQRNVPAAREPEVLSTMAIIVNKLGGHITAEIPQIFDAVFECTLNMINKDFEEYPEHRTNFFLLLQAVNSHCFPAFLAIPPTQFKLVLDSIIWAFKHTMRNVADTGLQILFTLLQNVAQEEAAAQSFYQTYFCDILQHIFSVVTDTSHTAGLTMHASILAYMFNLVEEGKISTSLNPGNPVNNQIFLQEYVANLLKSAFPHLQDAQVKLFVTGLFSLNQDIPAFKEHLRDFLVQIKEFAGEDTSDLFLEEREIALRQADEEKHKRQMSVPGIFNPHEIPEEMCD
structure (smiles),measurement,setting,value
"O=C(/C=C\n1cnc(-c2cc(C(F)(F)F)cc(C(F)(F)F)c2)n1)NNc1cnccn1 [Selinexor, selinexor]",IC50,[1],1.06 µM
same,IC50,"[2]; 72 hours, read-out: IC50",0.27 µM
same,IC50,[2]; [13],0.27 µM
same,IC50,[3],> 10 µM
same,Tmax,[4],~4 h
same,near complete plasma clearance by (time post-dose),[4],~24 h
same,IC50,"[5]; 4 h, read-out: Rev-GFP (nM), U2OS cells stably expressing Rev-GFP, 4 hours treatment",40 nM
same,IC50,"[5]; 4 h, read-out: RevGFP Assay IC50 (μM), Rev-GFP U2OS, selinexor 4 hours, 4 hours post washout",20 nM
same,IC50,"[5]; read-out: Rev-GFP IC50 (μM), U2OS Rev-GFP cells",40 nM
same,IC50,"[5]; read-out: RevGFP Assay IC50 (μM), Rev-GFP U2OS, selinexor 4 hours, 0 hours post washout",10 nM
same,IC50,"[5]; read-out: RevGFP Assay IC50 (μM), Rev-GFP U2OS, selinexor 4 hours, 24 hours post washout",500 nM
same,IC50,"[5]; read-out: RevGFP Assay IC50 (μM), Rev-GFP U2OS, selinexor 4 hours, 48 hours post washout",1300 nM
same,IC50,"[5]; read-out: RevGFP Assay IC50 (μM), Rev-GFP U2OS, selinexor 4 hours, 72 hours post washout",6800 nM
same,IC50,"[5]; read-out: RevGFP Assay IC50 (μM), Rev-GFP U2OS, selinexor 4 hours, 96 hours post washout",11400 nM
same,IC50,[6],> 10 µM
same,IC50,[7],0.07 µM
same,90% Occupancy,"[8]; fresh human PBMCs, selinexor 1 hour",> 0.5 µM
same,90% Occupancy,"[8]; human PBMCs revived from cryopreservation, selinexor 4 hours, washed",0.04 µM
same,IC50,[9],0.02 µM
same,time at which full saturation of XPO1 was achieved,[10]; single oral dose of 3 mg/kg,4 to 24 h
same,time for which 50% XPO1 occupancy is sustained post-treatment,[10]; single oral dose of 3 and 10 mg/kg,up to 72 hours
same,amount of selinexor required to occupy 50% of XPO1,[10]; [14],1.84 mg/kg
same,amount of selinexor to achieve 90% XPO1 occupancy,[10]; [14],> 10 mg/kg
same,IC50,"[11]; 72 hours, read-out: IC50",0.05 µM
same,IC50,[11]; [13],0.05 µM
same,IC50,[12],7 µM
